This note sets out measurements from US11450448B2, “Use of a linear octafluorobutene as a dielectric compound in an environmentally safe dielectric-insulation or arc-extinction fluid” (HITACHI ENERGY SWITZERLAND AG, priority 2016, dated 2022).

The nature of data set [1]: Decomposition tests: accelerated ageing with GIS materials. As to conditions: aged at 100° C. with Cu/Al plates, EPDM sealings, zeolites, SiO2, paints, grease, nitrile-butadiene rubber; analysed after 8 weeks of exposure. It is filed as physicochemical. How it is done: In order to assess the material compatibility of octafluoro-2-butene towards material typically used in a GIS, the following components were aged at accelerated conditions (at 100° C.) with octafluoro-2-butene gas:
Both the gas as well as the components exposed to the gas were analysed after 8 weeks of exposure.

The subject of another data set is rats. In words: median lethal concentration (LC50) measured on rats. Type of data set: in vivo. As to conditions: compared with C4N and C5K. The source says:
Specifically, the term “environmentally safe” also means that the dielectric-insulation or arc-extinction fluid has a relatively low toxicity level. More specifically, the median lethal dose (LC50; lethal concentration 50%; measured on rats) of the dielectric compound used in the environmentally safe dielectric-insulation or arc-extinction fluid is higher than 4′000 ppm, preferably higher than 5′000 ppm and more preferably higher than 6′000 ppm. Thus, the dielectric compound used according to the present invention ranges within the same toxicity class as previously mentioned C4N (having a much higher GWP than the dielectric compound used according to the present invention) and C5K (having a much higher boiling point than the dielectric compound used according to the present invention).

With `FC(=C(F)C(F)(F)F)C(F)(F)F` [octafluoro-2-butene], the “decomposition of the gas” value in data set [1] is given as “For none of the tests, a decomposition of the octafluoro-2-butene was determined”. For “linear octafluorobutene [linear octafluorobutenes]”, the toxicity class entry in the data set on rats was “ranges within the same toxicity class as for example heptafluoroisobutyronitrile (C4N) and 1,1,1,3,4,4,4-heptafluoro-3-(trifluoromethyl)-butan-2-one (C5K)”.
